Laboratory results as given in patent publication US12297171B2, “EP2 antagonist compounds” (Reservoir Neuroscience, Inc., priority 2021, dated 2025).

Tests used:
EP2 receptor = target: T1, EP2 receptor (Homo sapiens, UniProt P43116); assay: EP2 potency assay (cAMP TR-FRET, LANCE Ultra cAMP kit, antagonism of prostaglandin E2 at EC80); format: cell-based; conditions: CHO-K1 cells transfected with EP2 receptor
T1 construct: expressed in transfected cells; host or cells: CHO-K1 cells (ATCC), transiently transfected with FuGENE 6
Protocol: Compound potency was measured using a cAMP TR-FRET assay.
CHO-K1 cells (ATCC) were seeded at a density of 9.75×10^5 in 6 cm plates, and then on the following day cell media was changed to Opti-Mem I reduced serum media (Gibco), and transfected with a plasmid for expression of the EP2 receptor (the target receptor of interest), using the FuGENE 6 Transfection reagent (Promega). After 6 hours incubation, the cell media was replaced with F12 medium supplemented with 10% FBS and 100 U/ml Pen-Strep. 24 hours after transfection, cells were harvested and seeded at a density of 3000 cells/well in a 384 well plate to perform the cAMP assay, using the LANCE Ultra cAMP assay kit (PerkinElmer).
For each test compound of interest, 10 nl/well of serially diluted test compound was added to each well, resulting in a range of 10 serially diluted compound concentrations from 10000 nM to 0.038 nM, with duplicate wells for each concentration. Plates were then centrifuged at 1000 rpm for 1 min, agitated at 600 rpm at R.T. for 2 min, and incubated at 25° C. for 5 min. The reference agonist, prostaglandin E2 (MCE), was added to each well at the appropriate concentration to reach its EC80 value. Plates were then centrifuged at 1000 rpm for 1 min, agitated at 600 rpm at R.T. for 2 min, and incubated at 25° C. for 30 min.
To measure levels of cAMP, 5 μl/well of Eu-cAMP working solution and 5 μl/well of Ulight-anti-cAMP working solution were added to each well, and plate was centrifuged at 1000 rpm for 1 min, agitated at 600 rpm at R.T. for 2 min, and incubated at 25° C. for 15 min. Levels of TR-FRET fluorescence were measured in each well using an EnVision microplate reader (excitation wavelength=337 nm and emission wavelength=615 and 665 nm). A dose-response curve was prepared by plotting percent inhibition for each compound concentration, and then IC50 was calculated by fitting a curve to the plotted values and extrapolating the IC50 concentration.
Potency data is grouped into categories of AA (IC50<100 nM); A (IC50=100 to 500 nM); B (IC50=500 nM to 1 μM); C (IC50=1 μM to 5 μM); and D (IC50>5 μM).

[1] = Human liver microsome stability; format: in vitro ADME; conditions: human liver microsomes 0.5 mg/mL, 37° C., 60 minutes; for half-life at 2 μM: read-out: T1/2 (microsomal); for microsomal CLint at 2 μM: read-out: in vitro CLint (microsomal)
Protocol: The tested compound was incubated in duplicate with human liver microsomes (0.5 mg/mL) at 37° C. These incubations were carried out at a final test article concentration of 2 μM over a total incubation period of 60 minutes. Samples were taken at 0, 15, 30, 45 and 60 min and the reaction terminated by addition of 4 volumes of acetonitrile containing internal standard (100 nM alprazolam, 200 nM imipramine, 200 nM labetalol and 2 μM ketoprofen). Diclofenac was used as a positive control in this study. The samples were analyzed by UPLC-MS/MS to determine the concentration of the test compound and the percent remaining, intrinsic clearance (in vitro CLint) and half-life (t1/2) values were calculated.
Chromatographic analyses were performed on a Shimadzu UPLC apparatus (Kyoto, Japan) consisting of a gradient pump (model LC-30AD), an automatic injector (model HTC PAL System) and an on-line degasser (model DGU-20A5R). Detection was a triple quadrupole tandem mass spectrometer equipped with a turbo ion spray interface (API 4000/Triple Quad 4500/Triple Quad 5500/Triple Quad 6500). Data acquisition and integration were carried out with LC-MS software (Analyst 1.6) linked directly to the LC-MS/MS system. Chromatographic separations were achieved on a XSelect Hss T3 2.5μ (2.1×30 mm) Column. The mobile phase was 0.1% formic acid in water (A) and 0.1% formic acid in acetonitrile (B). The flow rate was 1.0 mL/min and column was maintained at 40° C.
Half-life (T1/2) data is measured in minutes, and in Table B2, in both microsomal and hepatic assays, the data is grouped into categories of: • A T1/2=1000+ • B T1/2=500 to 1000 • C T1/2=100 to 500 • D T1/2<100
In vitro clearance (CLint) data is measured in μL/min/mg prot, and in Table B2, in both microsomal and hepatic assays, the data is grouped into categories of: • A CLint<1 • B CLint=1 to 10 • C CLint=10 to 20 • D CLint=20+

T1 sequence (P43116 whole entry): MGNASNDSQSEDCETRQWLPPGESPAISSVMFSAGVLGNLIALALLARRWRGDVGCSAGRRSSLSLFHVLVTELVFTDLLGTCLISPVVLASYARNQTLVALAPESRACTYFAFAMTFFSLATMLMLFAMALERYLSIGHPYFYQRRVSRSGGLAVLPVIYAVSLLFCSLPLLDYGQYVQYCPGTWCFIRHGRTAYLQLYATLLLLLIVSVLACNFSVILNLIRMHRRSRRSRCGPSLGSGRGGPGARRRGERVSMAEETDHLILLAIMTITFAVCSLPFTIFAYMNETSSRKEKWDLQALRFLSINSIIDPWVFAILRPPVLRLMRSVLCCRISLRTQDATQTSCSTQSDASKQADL

Row | IC50 (EP2 receptor) [µM] | half-life at 2 μM [1] [h] | microsomal CLint at 2 μM [1] [µL/min/mg] | Compound
1 | 0.1 to 0.5 | – | – | COCS(=O)(=O)NC(=O)C1(COc2ccc(-c3ccc(C#N)cc3)cc2)CCN(C(=O)c2ccc(OC)cc2)C1 (stereo not drawn) [Compound 4-27, 3-[({4′-cyano-[1,1′-biphenyl]-4-yl}oxy)methyl]-1-(4-methoxybenzoyl)-N-methoxymethanesulfonylpyrrolidine-3-carboxamide]
2 | > 5 | – | – | COc1ccc(C(=O)N2CCC(COc3ccc(-c4ccc(C#N)cc4)cc3)(C(=O)NS(=O)(=O)C(C)(C)C)C2)cc1 (stereo not drawn) [Compound 4-29, 3-[({4′-cyano-[1,1′-biphenyl]-4-yl}oxy)methyl]-1-(4-methoxybenzoyl)-N-(2-methylpropane-2-sulfonyl)pyrrolidine-3-carboxamide]
3 | 1 to 5 | – | – | COc1ccc(C(=O)N2CCC(COc3ccc(-c4ccc(C#N)cc4)cc3)(C(=O)N(C)O)C2)cc1 (stereo not drawn) [Compound 4-22, 3-(((4′-cyano-[1,1′-biphenyl]-4-yl)oxy)methyl)-N-hydroxy-1-(4-methoxybenzoyl)-N-methylpyrrolidine-3-carboxamide]
4 | 1 to 5 | – | – | COc1ccc(C(=O)N2CCC(COc3ccc(-c4ccc(C#N)cc4)cc3)(C(=O)NO)C2)cc1 (stereo not drawn) [Compound 4-13, 3-(((4′-cyano-[1,1′-biphenyl]-4-yl)oxy)methyl)-N-hydroxy-1-(4-methoxybenzoyl)pyrrolidine-3-carboxamide]
5 | – | 1.67 to 8.33 | 1 to 10 | COc1ccc2cc(OCC3(n4nn[nH]c4=O)CN(C(=O)c4ccc(F)cc4)C3)ccc2c1 [Compound 1-2, 1-(1-(4-fluorobenzoyl)-3-(((6-methoxynaphthalen-2-yl)oxy)methyl)azetidin-3-yl)-1,4-dihydro-5H-tetrazol-5-one]
6 | > 5 | – | – | COc1ccc(C(N2CCC(COc3ccc(-c4ccc(C#N)cc4)cc3)(C(=O)O)C2)C(F)(F)F)cc1 (stereo not drawn) [Compound 4-1, 3-[({4′-cyano-[1,1′-biphenyl]-4-yl}oxy)methyl]-1-[2,2,2-trifluoro-1-(4-methoxyphenyl)ethyl]pyrrolidine-3-carboxylic acid; trifluoroacetic acid]
7 | – | < 1.67 | > 20 | COc1ccc(C(=O)N2CCC(C#N)(COc3ccc(-c4ccc(C#N)cc4)cc3)C2)cc1 (racemic) [Compound 2-3, 3-(((4′-cyano-[1,1′-biphenyl]-4-yl)oxy)methyl)-1-(4-methoxybenzoyl)pyrrolidine-3-carbonitrile]
8 | – | < 1.67 | > 20 | COc1ccc2cc(OCC3(C#N)CN(C(=O)c4ccc(F)cc4)C3)ccc2c1 [Compound 1-3, 1-(4-fluorobenzoyl)-3-(((6-methoxynaphthalen-2-yl)oxy)methyl)azetidine-3-carbonitrile]
9 | > 5 | – | – | COc1ccc(C(=O)N2CCC(COc3ccc(-c4ccc(C#N)cc4)cc3)(C(=O)NCC(F)(F)F)C2)cc1 (stereo not drawn) [Compound 4-20, 3-(((4′-cyano-[1,1′-biphenyl]-4-yl)oxy)methyl)-1-(4-methoxybenzoyl)-N-(2,2,2-trifluoroethyl)pyrrolidine-3-carboxamide]
10 | > 5 | – | – | N#Cc1ccc(-c2ccc(OCC3(C(=O)O)CCN(C(c4ccc(Br)cc4)C(F)(F)F)C3)cc2)cc1 (stereo not drawn) [Compound 4-34, 1-[1-(4-bromophenyl)-2,2,2-trifluoroethyl]-3-[({4′-cyano-[1,1′-biphenyl]-4-yl}oxy)methyl]pyrrolidine-3-carboxylic acid]
11 | > 5 | – | – | CONC(=O)C1(COc2ccc(-c3ccc(C#N)cc3)cc2)CCN(C(=O)c2ccc(OC)cc2)C1 (stereo not drawn) [Compound 4-23, 3-(((4′-cyano-[1,1′-biphenyl]-4-yl)oxy)methyl)-N-methoxy-1-(4-methoxybenzoyl)pyrrolidine-3-carboxamide]
12 | 0.5 to 1 | 8.33 to 16.7 | 1 to 10 | COc1ccc(C(=O)N2CCC(COc3ccc(-c4ccc(C#N)cc4)cc3)(n3nn[nH]c3=O)C2)cc1 (racemic) [Compound 2-2, 4′-((1-(4-methoxybenzoyl)-3-(5-oxo-4,5-dihydro-1H-tetrazol-1-yl)pyrrolidin-3-yl)methoxy)-[1,1′-biphenyl]-4-carbonitrile]
13 | 1 to 5 | – | – | COc1ccc(C(=O)N2CCC(COc3ccc(-c4ccc(C#N)cc4)cc3)(C(=O)NS(=O)(=O)CC(F)(F)F)C2)cc1 (stereo not drawn) [Compound 4-26, 3-[({4′-cyano-[1,1′-biphenyl]-4-yl}oxy)methyl]-1-(4-methoxybenzoyl)-N-(2,2,2-trifluoroethanesulfonyl)pyrrolidine-3-carboxamide]
14 | 0.5 to 1 | – | – | CCS(=O)(=O)NC(=O)C1(COc2ccc(-c3ccc(C#N)cc3)cc2)CCN(C(=O)c2ccc(OC)cc2)C1 (stereo not drawn) [Compound 4-25, 3-[({4′-cyano-[1,1′-biphenyl]-4-yl}oxy)methyl]-N-(ethanesulfonyl)-1-(4-methoxybenzoyl)pyrrolidine-3-carboxamide]
15 | 1 to 5 | – | – | COc1ccc(C(=O)N2CCC(COc3ccc(-c4ccc(C#N)cc4)cc3)(C(=O)NC#N)C2)cc1 (stereo not drawn) [Compound 4-21, N-cyano-3-(((4′-cyano-[1,1′-biphenyl]-4-yl)oxy)methyl)-1-(4-methoxybenzoyl)pyrrolidine-3-carboxamide]
16 | > 5 | – | – | COc1ccc(C(=O)N2CCC(COc3ccc(-c4ccc(C#N)cc4)cc3)(C(=O)NS(=O)(=O)c3ccccc3)C2)cc1 (stereo not drawn) [Compound 4-31, N-(benzenesulfonyl)-3-[({4′-cyano-[1,1′-biphenyl]-4-yl}oxy)methyl]-1-(4-methoxybenzoyl)pyrrolidine-3-carboxamide]
17 | 0.5 to 1 | – | – | COc1ccc(C(=O)N2CCC(COc3ccc(-c4ccc(C#N)cc4)cc3)(C(=O)NS(=O)(=O)C(C)C)C2)cc1 (stereo not drawn) [Compound 4-28, 3-[({4′-cyano-[1,1′-biphenyl]-4-yl}oxy)methyl]-1-(4-methoxybenzoyl)-N-(propane-2-sulfonyl)pyrrolidine-3-carboxamide]
18 | > 5 | – | – | COc1ccc(C(=O)N2CCC(COc3ccc(-c4ccc(C#N)cc4)cc3)(c3cc[nH]c(=O)c3)C2)cc1 (stereo not drawn) [Compound 4-16, 4′-{[1-(4-methoxybenzoyl)-3-(2-oxo-1H-pyridin-4-yl)pyrrolidin-3-yl]methoxy}-[1,1′-biphenyl]-4-carbonitrile]
19 | 1 to 5 | – | – | COc1ccc(C(=O)N2CCC(COc3ccc(-c4ccc(C#N)cc4)cc3)(C(=O)NS(=O)(=O)C3CC3)C2)cc1 (stereo not drawn) [Compound 4-30, 3-[({4′-cyano-[1,1′-biphenyl]-4-yl}oxy)methyl]-N-(cyclopropanesulfonyl)-1-(4-methoxybenzoyl)pyrrolidine-3-carboxamide]
